What is called EC50 is the concentration needed to bring the measured effect to its halfway point.

For the assay, the target named is human APJ receptor (Homo sapiens (Human), UniProt P35414). Kind of assay: [35S]GTPγS binding assay on membranes from CHO cells stably expressing human APJ receptor. The assay is classed as biochemical. As to conditions: read-out: Activity hAPJ SPA EC50 IP. In outline: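 Membranes from CHO cells stably expressing human APJ incubated with ligand, 0.2 nM [35S]GTPγS and WGA SPA beads in HEPES pH 7.5 with 5 mM MgCl2, 200 mM NaCl, 3 μM GDP, 90 min at RT. Nonspecific binding defined with 100 μM GTPγS; EC50 by non-linear regression.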
Chain of human APJ receptor (P35414 whole entry): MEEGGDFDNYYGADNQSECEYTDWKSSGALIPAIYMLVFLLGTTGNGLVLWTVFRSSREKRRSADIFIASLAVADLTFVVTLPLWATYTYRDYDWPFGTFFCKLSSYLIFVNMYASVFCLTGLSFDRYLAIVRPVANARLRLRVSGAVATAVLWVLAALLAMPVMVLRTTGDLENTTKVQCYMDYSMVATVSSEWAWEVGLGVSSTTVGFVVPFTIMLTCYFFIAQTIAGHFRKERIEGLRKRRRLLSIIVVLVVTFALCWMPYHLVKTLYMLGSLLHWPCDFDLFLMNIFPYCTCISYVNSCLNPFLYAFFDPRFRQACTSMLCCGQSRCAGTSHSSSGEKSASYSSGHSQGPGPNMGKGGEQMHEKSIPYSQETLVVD
In general terms: GTPγS resists hydrolysis and so accumulates on activated G proteins.
For the compound `COc1cccc(OC)c1-n1c(NS(=O)(=O)[C@@H](C)[C@H](C)c2ncc(F)cn2)nnc1[C@H]1CCC(C)(C)O1` (single isomer, unassigned) [Example 333.0, (2S,3R)-N-(4-(2,6-dimethoxyphenyl)-5-((R)-5,5-dimethyltetrahydrofuran-2-yl)-4H-1,2,4-triazol-3-yl)-3-(5-fluoropyrimidin-2-yl)butane-2-sulfonamide or (2S,3R)-N-(4-(2,6-dimethoxyphenyl)-5-((S)-5,5-dimethyltetrahydrofuran-2-yl)-4H-1,2,4-triazol-3-yl)-3-(5-fluoropyrimidin-2-yl)butane-2-sulfonamide], the EC50 is 190 nM.
As to `COc1cccc(OC)c1-n1c(NS(=O)(=O)[C@@H](C)[C@H](C)c2ncc(F)cn2)nnc1[C@H]1CCC(C)(C)O1` (single isomer, unassigned) [Example 334.0, (2S,3R)-N-(4-(2,6-dimethoxyphenyl)-5-((R)-5,5-dimethyltetrahydrofuran-2-yl)-4H-1,2,4-triazol-3-yl)-3-(5-fluoropyrimidin-2-yl)butane-2-sulfonamide or (2S,3R)-N-(4-(2,6-dimethoxyphenyl)-5-((S)-5,5-dimethyltetrahydrofuran-2-yl)-4H-1,2,4-triazol-3-yl)-3-(5-fluoropyrimidin-2-yl)butane-2-sulfonamide], the EC50 amounted to 2.5 nM.
For `CCC(CC)n1c(NS(=O)(=O)[C@@H](C)[C@H](OC)c2ncc(Cl)cn2)nnc1[C@@H]1COCCO1` (single isomer, unassigned) [Example 335.0, (1R,2S)-1-(5-chloro-2-pyrimidinyl)-N-(5-((2R)-1,4-dioxan-2-yl)-4-(3-pentanyl)-4H-1,2,4-triazol-3-yl)-1-methoxy-2-propanesulfonamide or (1R,2S)-1-(5-chloro-2-pyrimidinyl)-N-(5-((2S)-1,4-dioxan-2-yl)-4-(3-pentanyl)-4H-1,2,4-triazol-3-yl)-1-methoxy-2-propanesulfonamide], the EC50 is 38 nM.
For `CCC(CC)n1c(NS(=O)(=O)[C@@H](C)[C@H](OC)c2ncc(Cl)cn2)nnc1[C@@H]1COCCO1` (single isomer, unassigned) [Example 336.0, (1R,2S)-1-(5-chloro-2-pyrimidinyl)-N-(5-((2R)-1,4-dioxan-2-yl)-4-(3-pentanyl)-4H-1,2,4-triazol-3-yl)-1-methoxy-2-propanesulfonamide or (1R,2S)-1-(5-chloro-2-pyrimidinyl)-N-(5-((2S)-1,4-dioxan-2-yl)-4-(3-pentanyl)-4H-1,2,4-triazol-3-yl)-1-methoxy-2-propanesulfonamide], the EC50 was 1400 nM.
For `CO[C@H](c1ncc(Cl)cn1)[C@H](C)S(=O)(=O)Nc1nnc([C@@H]2COCCO2)n1C(C1CC1)C1CC1` (single isomer, unassigned) [Example 337.0, (1R,2S)-1-(5-chloro-2-pyrimidinyl)-N-(4-(dicyclopropylmethyl)-5-((2R)-1,4-dioxan-2-yl)-4H-1,2,4-triazol-3-yl)-1-methoxy-2-propanesulfonamide or (1R,2S)-1-(5-chloro-2-pyrimidinyl)-N-(4-(dicyclopropylmethyl)-5-((2S)-1,4-dioxan-2-yl)-4H-1,2,4-triazol-3-yl)-1-methoxy-2-propanesulfonamide], the concentration for a half-maximal effect (EC50) came out at 6.9 nM.
For `CO[C@H](c1ncc(Cl)cn1)[C@H](C)S(=O)(=O)Nc1nnc([C@@H]2COCCO2)n1C(C1CC1)C1CC1` (single isomer, unassigned) [Example 338.0, (1R,2S)-1-(5-chloro-2-pyrimidinyl)-N-(4-(dicyclopropylmethyl)-5-((2R)-1,4-dioxan-2-yl)-4H-1,2,4-triazol-3-yl)-1-methoxy-2-propanesulfonamide or (1R,2S)-1-(5-chloro-2-pyrimidinyl)-N-(4-(dicyclopropylmethyl)-5-((2S)-1,4-dioxan-2-yl)-4H-1,2,4-triazol-3-yl)-1-methoxy-2-propanesulfonamide] the value was 110 nM; for `COCC1(n2c(NS(=O)(=O)[C@@H](C)[C@H](OC)c3ncc(Cl)cn3)nnc2[C@H]2CCOC2)CC1` (single isomer, unassigned) [Example 339.0, (1R,2S)-1-(5-chloro-2-pyrimidinyl)-1-methoxy-N-(4-(1-(methoxymethyl)cyclopropyl)-5-((3R)-tetrahydro-3-furanyl)-4H-1,2,4-triazol-3-yl)-2-propanesulfonamide or (1R,2S)-1-(5-chloro-2-pyrimidinyl)-1-methoxy-N-(4-(1-(methoxymethyl)cyclopropyl)-5-((3S)-tetrahydro-3-furanyl)-4H-1,2,4-triazol-3-yl)-2-propanesulfonamide], 1440 nM; for `COCC1(n2c(NS(=O)(=O)[C@@H](C)[C@H](OC)c3ncc(Cl)cn3)nnc2[C@H]2CCOC2)CC1` (single isomer, unassigned) [Example 340.0, (1R,2S)-1-(5-chloro-2-pyrimidinyl)-1-methoxy-N-(4-(1-(methoxymethyl)cyclopropyl)-5-((3R)-tetrahydro-3-furanyl)-4H-1,2,4-triazol-3-yl)-2-propanesulfonamide or (1R,2S)-1-(5-chloro-2-pyrimidinyl)-1-methoxy-N-(4-(1-(methoxymethyl)cyclopropyl)-5-((3S)-tetrahydro-3-furanyl)-4H-1,2,4-triazol-3-yl)-2-propanesulfonamide], 150 nM.
Turning to `COCC1(n2c(NS(=O)(=O)[C@@H](C)[C@H](OC)c3ncc(Cl)cn3)nnc2[C@H]2COCCO2)CC1` (single isomer, unassigned) [Example 342.0, (1R,2S)-N-(5-((S)-1,4-dioxan-2-yl)-4-(1-(methoxymethyl)cyclopropyl)-4H-1,2,4-triazol-3-yl)-1-(5-chloropyrimidin-2-yl)-1-methoxypropane-2-sulfonamide or (1R,2S)-N-(5-((R)-1,4-dioxan-2-yl)-4-(1-(methoxymethyl)cyclopropyl)-4H-1,2,4-triazol-3-yl)-1-(5-chloropyrimidin-2-yl)-1-methoxypropane-2-sulfonamide], the EC50 amounted to 100 nM.
For `COc1cccc(OC)c1-n1c(NS(=O)(=O)[C@@H](C)[C@H](C)c2ncc(Cl)cn2)nnc1[C@H]1CCC(=O)N1` (single isomer, unassigned) [Example 343.0, (2S,3R)-3-(5-chloropyrimidin-2-yl)-N-(4-(2,6-dimethoxyphenyl)-5-((R)-5-oxopyrrolidin-2-yl)-4H-1,2,4-triazol-3-yl)butane-2-sulfonamide or (2S,3R)-3-(5-chloropyrimidin-2-yl)-N-(4-(2,6-dimethoxyphenyl)-5-((S)-5-oxopyrrolidin-2-yl)-4H-1,2,4-triazol-3-yl)butane-2-sulfonamide] the value was 730 nM; for `COc1cccc(OC)c1-n1c(NS(=O)(=O)[C@@H](C)[C@H](C)c2ncc(Cl)cn2)nnc1[C@H]1CCC(=O)N1` (single isomer, unassigned) [Example 344.0, (2S,3R)-3-(5-chloropyrimidin-2-yl)-N-(4-(2,6-dimethoxyphenyl)-5-((R)-5-oxopyrrolidin-2-yl)-4H-1,2,4-triazol-3-yl)butane-2-sulfonamide or (2S,3R)-3-(5-chloropyrimidin-2-yl)-N-(4-(2,6-dimethoxyphenyl)-5-((S)-5-oxopyrrolidin-2-yl)-4H-1,2,4-triazol-3-yl)butane-2-sulfonamide], 230 nM.
